Series [1] deals with FGFR. In words: Cell-free enzymatic kinase inhibition assay, FGFR. The series is classed as biochemical. Conditions: 1 mM ATP.
Series [2] in a line: Dissolution of compound in molten PEG. Format: physicochemical. The settings on record: PEG 3350 and PEG 8000 melted at about 60° C. to 95° C. From the text:
The present inventors have discovered that certain active agents have a higher solubility in the presence of PEG than in water. […] This pellet forms a colloidal like suspension when the pellet dissolves in water. Furthermore, using blends of high and low molecular weight PEGs can make erodible gel with the compound uniformly dispersed in it (see examples). This provides an injection dosage form for delivery of insoluble compounds via posterior juxtascleral or intravitreal administration, which enhances the solubility of the compounds and achieves the desired bioavailability. In the formulations of the present invention, the compound forms a solid solution in the matrix of the PEG.

The term IC50 denotes the midpoint of a concentration-inhibition curve. Read a low IC50 as greater potency in that assay. In turn, `Cc1ccc(F)c(NC(=O)Nc2ccc(-c3cccc4[nH]nc(N)c34)cc2)c1` [RTK Inhibitor, N-[4-(3-amino-1H-indazol-4-yl)phenyl]-N′-(2-fluoro-5-methylphenyl)urea] came in with an IC50 in series [1] greater than 12.5 µM. For the same molecule, the “Solubility in PEG” value in series [2] was “dissolve completely”.
